What was measured:
[1] = system: cells originated from human mouth tumour (KB-cells); test: Inhibition of the proliferation of cells originated from human mouth tumour (KB-cells), Trypan Blue staining; type: cell-based; details: 96 h, 37° C., 4 days, relative to control (0.1% ethanol), read-out: Percent Inhibition of proliferation, KB-cells; for inhibition at 1 µg/mL: 1 μg/ml; for inhibition at 5 µg/mL: 5 μg/ml
Procedure: Test on the Inhibition of the Proliferation of Cells Originated from Human Mouth Tumour (KB-cells) Experimental method
The test on the inhibition of the proliferation of cells originated from human mouth tumour was conducted by a well known method. The cells originated from human mouth tumour (KB-cells) were added to an Eagle's MEM culture solution containing 10% bovine fetal serum, the number of cells in the culture solution was adjusted to 1×10^5 cells/ml, a solution in ethanol of the compound under test was added to give a concentration of 5 μg/ml or 1 μg/ml, and the mixture was subjected to stationary culture at 37° C. for 4 days. As a control, a culture solution containing 0.1% of ethanol was similarly cultured. The culture solutions were stained by the Trypan Blue staining method and the surviving cell number was measured to determine the degree of inhibition relative to the control.

[2] = system: human myelogenous leukemic cells (HL-60); test: Inhibition of the proliferation of human myelogenous leukemic cells (HL-60), Trypan Blue staining; type: cell-based; details: HL-60, 96 h, 37° C., 4 days, relative to control (0.1% ethanol), read-out: Percent Inhibition of proliferation, HL-60 cells; for inhibition at 1 µg/mL: 1 μg/ml; for inhibition at 5 µg/mL: 5 μg/ml
Procedure: Test on the Inhibition of the Proliferation of Human Myelogenous Leukemic Cells (HL-60) Experimental method
The test on the inhibition of the proliferation of human myelogenous leukemic cells was conducted by a well known method. The human myelogenous leukemic cells (HL-60) were added to an RPMI culture solution containing 10% bovine fetal serum, the number of cells in the culture solution was adjusted to 1×10^5 cells/ml, a solution in ethanol of the compound under test was added to give a concentration of 5 μg/ml or 1 μg/ml, and the mixture was subjected to stationary culture at 37° C. for 4 days. As a control, a culture solution containing 0.1% of ethanol was similarly cultured. The culture solutions were stained by the Trypan Blue staining method and the surviving cell number was measured to determine the degree of inhibition relative to the control.

| SMILES | inhibition at 1 µg/mL [1] [%] | inhibition at 5 µg/mL [1] [%] | inhibition at 1 µg/mL [2] [%] | inhibition at 5 µg/mL [2] [%] |
| --- | --- | --- | --- | --- |
| CCCCC[C@H](O)/C=C/[C@H]1C(=O)C=C[C@@H]1C/C=C\C/C=C/C(=O)O [Trans-Δ^2-9-deoxy-Δ^9 -PGD2, (2E,5Z,9Z,13E)-(15S)-11-oxo-15-hydroxyprosta-2,5,9,13-tetraenoic acid] | 9.7 | 98.5 | 1.4 | 99 |
| CCCCCC=CC=C1C(=O)C=C[C@@H]1C/C=C\C/C=C/C(=O)O [(2E,5Z,9Z,14EZ)-11-oxoprosta-2,5,9,12,14-pentaenoic acid] | 0 | 100 | 4.8 | 98.3 |
| CCCCC[C@H](O)/C=C/[C@H]1C(=O)C[C@H](O)[C@@H]1C/C=C\C/C=C/C(=O)O [Trans-Δ^2 -PGD2, (2E,5Z,13E)-(9α,15S)-9,15-dihydroxy-11-oxoprosta-2,5,13-trienoic acid] | 2.1 | 17.9 | 0 | 19.4 |

— patent US4562204A, “Trans-Δ^2 -prostaglandin D derivatives, process for their preparation and compositions containing them” (Ono Pharmaceutical Co., Ltd., priority 1982, dated 1985)
